# Experimental data: patent US8188094B2, “Inhibitors of glutaminyl cyclase” (Probiodrug AG, priority 2007, dated 2012)
# Target: glutaminyl cyclase (QC) (Homo sapiens, UniProt Q16769)
# Assay: QC inhibitor assay (fluorometric / spectrophotometric QC activity assays)
# Type: biochemical
# Settings: QC inhibition, 30° C.; for Ki: progress curves fitted to the general equation for competitive inhibition
# Description: All measurements were performed with a BioAssay Reader HTS-7000Plus for microplates (Perkin Elmer) at 30° C. QC activity was evaluated fluorometrically using H-Gln-βNA. The samples consisted of 0.2 mM fluorogenic substrate, 0.25 U pyroglutamyl aminopeptidase (Unizyme, Hørsholm, Denmark) in 0.2 M Tris/HCl, pH 8.0 containing 20 mM EDTA and an appropriately diluted aliquot of QC in a final volume of 250 μl. Excitation/emission wavelengths were 320/410 nm. The assay reactions were initiated by addition of glutaminyl cyclase. QC activity was determined from a standard curve of β-naphthylamine under assay conditions. One unit is defined as the amount of QC catalyzing the formation of 1 μmol pGlu-βNA from H-Gln-βNA per minute under the described conditions.
# In a second fluorometric assay, QC was activity determined using H-Gln-AMC as substrate. Reactions were carried out at 30° C. utilizing the NOVOStar reader for microplates (BMG labtechnologies). The samples consisted of varying concentrations of the fluorogenic substrate, 0.1 U pyroglutamyl aminopeptidase (Qiagen) in 0.05 M Tris/HCl, pH 8.0 containing 5 mM EDTA and an appropriately diluted aliquot of QC in a final volume of 250 μl. Excitation/emission wavelengths were 380/460 nm. The assay reactions were initiated by addition of glutaminyl cyclase. QC activity was determined from a standard curve of 7-amino-4-methylcoumarin under assay conditions. The kinetic data were evaluated using GraFit software.
# This novel assay was used to determine the kinetic parameters for most of the QC substrates. QC activity was analyzed spectrophotometrically using a continuous method, that was derived by adapting a previous discontinuous assay (Bateman, R. C. J. 1989 J Neurosci Methods 30, 23-28) utilizing glutamate dehydrogenase as auxiliary enzyme. Samples consisted of the respective QC substrate, 0.3 mM NADH, 14 mM α-Ketoglutaric acid and 30 U/ml glutamate dehydrogenase in a final volume of 250 μl. Reactions were started by addition of QC and persued by monitoring of the decrease in absorbance at 340 nm for 8-15 min.
# The initial velocities were evaluated and the enzymatic activity was determined from a standard curve of ammonia under assay conditions. All samples were measured at 30° C., using either the SPECTRAFluor Plus or the Sunrise (both from TECAN) reader for microplates. Kinetic data was evaluated using GraFit software.
# For inhibitor testing, the sample composition was the same as described above, except of the putative inhibitory compound added. For a rapid test of QC-inhibition, samples contained 4 mM of the respective inhibitor and a substrate concentration at 1 KM. For detailed investigations of the inhibition and determination of Ki-values, influence of the inhibitor on the auxiliary enzymes was investigated first. In every case, there was no influence on either enzyme detected, thus enabling the reliable determination of the QC inhibition. The inhibitory constant was evaluated by fitting the set of progress curves to the general equation for competitive inhibition using GraFit software.
# Chain of glutaminyl cyclase (QC) (Q16769 29-361): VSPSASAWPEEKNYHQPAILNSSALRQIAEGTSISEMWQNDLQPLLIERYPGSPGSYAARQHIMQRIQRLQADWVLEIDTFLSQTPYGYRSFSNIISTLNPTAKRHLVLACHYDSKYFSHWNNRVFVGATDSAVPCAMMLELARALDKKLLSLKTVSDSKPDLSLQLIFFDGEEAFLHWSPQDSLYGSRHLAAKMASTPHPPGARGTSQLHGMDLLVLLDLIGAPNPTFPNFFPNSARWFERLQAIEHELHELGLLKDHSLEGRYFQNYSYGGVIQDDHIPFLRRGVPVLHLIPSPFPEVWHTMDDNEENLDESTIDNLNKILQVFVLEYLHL
Compound,IC50 [µM],Ki [µM]
"Cc1cc(NCCCn2ccnc2)nc(C)n1 [Example 4, N-(3-(1H-imidazol-1-yl)propyl)-2,6-dimethylpyrimidin-4-amine]",30.3,9.31
"Cc1nc(NCCCn2ccnc2)cc(-c2cc(C(F)(F)F)cc(C(F)(F)F)c2)n1 [Example 6, N-(3-(1H-imidazol-1-yl)propyl)-6-(3,5-bis(trifluoromethyl)phenyl)-2-methyl-pyrimidin-4-amine]",14.7,4.69
"FC(F)(F)c1cc(-c2cc(NCCCn3ccnc3)nc(-c3ccccc3)n2)cc(C(F)(F)F)c1 [Example 7, N-(3-(1H-imidazol-1-yl)propyl)-6-(3,5-bis(trifluoromethyl)phenyl)-2-phenyl-pyrimidin-4-amine]",91.1,–
"COc1cc(-c2cc(NCCCn3ccnc3)nc(-c3ccccc3)n2)cc(OC)c1OC [Example 8, N-(3-(1H-imidazol-1-yl)propyl)-6-(3,4,5-trimethoxyphenyl)-2-phenylpyrimidin-4-amine]",7.08,1.16
"O=[N+]([O-])c1ccc(-c2cc(NCCCn3ccnc3)nc(-c3ccccc3)n2)cc1 [Example 10, N-(3-(1H-imidazol-1-yl)propyl)-6-(4-nitrophenyl)-2-phenylpyrimidin-4-amine]",12.4,–
"COc1ccccc1-c1cc(NCCCn2ccnc2)nc(-c2ccccc2)n1 [Example 11, N-(3-(1H-imidazol-1-yl)propyl)-6-(2-methoxyphenyl)-2-phenylpyrimidin-4-amine]",22.6,–
"COc1cccc(-c2cc(NCCCn3ccnc3)nc(-c3ccccc3)n2)c1 [Example 12, N-(3-(1H-imidazol-1-yl)propyl)-6-(3-methoxyphenyl)-2-phenylpyrimidin-4-amine]",9.37,3.75
"c1ccc(-c2nc(NCCCn3ccnc3)cc(C34CC5CC(CC(C5)C3)C4)n2)cc1 [Example 14, N-(3-(1H-imidazol-1-yl)propyl)-6-(adamant-1-yl)-2-phenylpyrimidin-4-amine]",116,–
"c1cc(-c2nc(NCCCn3ccnc3)cc(-c3ccoc3)n2)ccn1 [Example 17, N-(3-(1H-imidazol-1-yl)propyl)-6-(furan-3-yl)-2-(pyridin-4-yl)pyrimidin-4-amine]",27.3,3.7
"FC(F)(F)c1cc(NCCCn2ccnc2)nc(-c2ccncc2)n1 [Example 18, N-(3-(1H-imidazol-1-yl)propyl)-6-(trifluoromethyl)-2-(pyridin-4-yl)pyrimidin-4-amine]",36.8,4.19
"COc1cc(-c2cc(NCCCn3ccnc3)nc(C)n2)cc(OC)c1OC [Example 20, N-(3-(1H-imidazol-1-yl)propyl)-6-(3,4,5-trimethoxy-phenyl)-2-methyl-pyrimidin-4-amine]",6.43,0.72
"O=[N+]([O-])c1ccc(-c2cc(NCCCn3ccnc3)nc(-c3ccncc3)n2)cc1 [Example 24, N-(3-(1H-imidazol-1-yl)propyl)-6-(4-nitrophenyl)-2-(pyridin-4-yl)pyrimidin-4-amine]",16.9,–
"Cc1ccc(-c2cc(NCCCn3ccnc3)nc(-c3ccncc3)n2)cc1 [Example 25, N-(3-(1H-imidazol-1-yl)propyl)-2-(pyridin-4-yl)-6-p-tolylpyrimidin-4-amine]",30.6,–
"COc1ccccc1-c1cc(NCCCn2ccnc2)nc(-c2ccncc2)n1 [Example 26, N-(3-(1H-imidazol-1-yl)propyl)-6-(2-methoxyphenyl)-2-(pyridin-4-yl)pyrimidin-4-amine]",8.18,0.83
"COc1cccc(-c2cc(NCCCn3ccnc3)nc(-c3ccncc3)n2)c1 [Example 27, N-(3-(1H-imidazol-1-yl)propyl)-6-(3-methoxyphenyl)-2-(pyridin-4-yl)pyrimidin-4-amine]",19,–
"COc1ccccc1-c1cc(NCCCn2cncc2C)nc(-c2ccncc2)n1 [Example 28, 6-(2-Methoxyphenyl)-N-(3-(5-methyl-1H-imidazol-1-yl)propyl)-2-(pyridin-4-yl)pyrimidin-4-amine]",1.09,0.281
"c1ccc(-c2nc(Nc3ccc4nc[nH]c4c3)cc(-c3ccc4ncccc4c3)n2)cc1 [Example 30, N-(2-phenyl-6-(quinolin-6-yl)pyrimidin-4-yl)-3H-benzo[d]imidazol-5-amine]",100,–
"c1ccc(C2CC2c2cc(NCCCn3ccnc3)nc(-c3ccncc3)n2)cc1 (stereo not drawn) [Example 33, N-(3-(1H-imidazol-1-yl)propyl)-6-(2-phenylcyclopropyl)-2-(pyridin-4-yl)-pyrimidin-4-amine]",26.5,3.06
"c1ccc2c(c1)CC(c1cc(NCCCn3ccnc3)nc(-c3ccncc3)n1)C2 [Example 36, N-(3-(1H-imidazol-1-yl)propyl)-6-(2,3-dihydro-1H-inden-2-yl)-2-(pyridin-4-yl)-pyrimidin-4-amine]",26.8,3.52

# Other lines, results leading:
IC50 [µM],Ki [µM],Compound
47.8,18,"Cc1cc(NCCCn2ccnc2)nc(-c2ccccc2)n1 [Example 1, N-(3-(1H-imidazol-1-yl)propyl)-6-methyl-2-phenylpyrimidin-4-amine]"
49.8,3.9,"c1ccc(-c2cc(NCCCn3ccnc3)nc(-c3ccccc3)n2)cc1 [Example 2, N-(3-(1H-imidazol-1-yl)propyl)-2,6-diphenylpyrimidin-4-amin]"
28.1,4.6,"Cc1nc(NCCCn2ccnc2)cc(-c2ccccc2)n1 [Example 3, N-(3-(1H-imidazol-1-yl)propyl)-2-methyl-6-phenylpyrimidin-4-amine]"
13.3,3.52,"Cc1ccc(-c2cc(NCCCn3ccnc3)nc(C)n2)cc1 [Example 5, N-(3-(1H-imidazol-1-yl)propyl)-2-methyl-6-p-tolylpyrimidin-4-amine]"
14.4,–,"Cc1ccc(-c2cc(NCCCn3ccnc3)nc(-c3ccccc3)n2)cc1 [Example 9, N-(3-(1H-imidazol-1-yl)propyl)-2-phenyl-6-p-tolylpyrimidin-4-amine]"
40.3,14.9,"c1ccc(-c2nc(NCCCn3ccnc3)cc(-c3ccoc3)n2)cc1 [Example 13, N-(3-(1H-imidazol-1-yl)propyl)-6-(furan-3-yl)-2-phenylpyrimidin-4-amine]"
20.9,2.7,"COc1cccc(-c2cc(NCCCn3ccnc3)nc(C)n2)c1 [Example 19, N-(3-(1H-imidazol-1-yl)propyl)-6-(3-methoxyphenyl)-2-methylpyrimidin-4-amine]"
18.5,2.26,"COc1ccc(-c2cc(NCCCn3ccnc3)nc(C)n2)cc1 [Example 21, N-(3-(1H-imidazol-1-yl)propyl)-6-(4-methoxyphenyl)-2-methylpyrimidin-4-amine]"
19.3,2.16,"COc1ccccc1-c1cc(NCCCn2ccnc2)nc(C)n1 [Example 22, N-(3-(1H-imidazol-1-yl)propyl)-6-(2-methoxyphenyl)-2-methylpyrimidin-4-amine]"
31.4,3.56,"Cc1nc(NCCCn2ccnc2)cc(-c2ccc3ncccc3c2)n1 [Example 31, N-(3-(1H-imidazol-1-yl)propyl)-2-methyl-6-(quinolin-6-yl)pyrimidin-4-amine]"
48.3,6.82,"Cc1nc(NCCCn2ccnc2)cc(C2Cc3ccccc3C2)n1 [Example 34, N-(3-(1H-imidazol-1-yl)propyl)-6-(2,3-dihydro-1H-inden-2-yl)-2-methyl-pyrimidin-4-amine]"
